From ChEMBL document CHEMBL5500343, “Activity refinement of aryl amino acetamides that target the P. falciparum STAR-related lipid transfer 1 protein” (Eur J Med Chem, 2024)
In brackets after ≈: the same amount, converted by molar mass.

Assays:
Plasmodium falciparum [1] = assay: Antimalarial activity against asexual blood stage Plasmodium falciparum 3D7 assessed as reduction in parasite growth incubated for 72 hrs by LDH assay; format: functional, organism-based; settings: 3D7, 72 h
HepG2 = assay: Cytotoxicity against human HepG2 cells assessed as reduction in cell viability incubated for 48 hrs by Cell Titer-Glo assay; format: functional, cell-based; settings: HepG2, 48 h
Plasmodium falciparum [2] = assay: Antimalarial activity against Plasmodium falciparum Dd2 assessed as reduction in parasite growth incubated for 72 hrs by [3H]-hypoxanthine incorporation assay; format: functional, organism-based
Plasmodium falciparum [3] = assay: Antimalarial activity against ELQ-300 resistant Plasmodium falciparum Dd2 harboring Cyt b I22L mutant assessed as reduction in parasite growth incubated for 72 hrs by [3H]-hypoxanthine incorporation assay; format: functional, organism-based
Plasmodium falciparum [4] = assay: Antimalarial activity against DDD-107498 resistant Plasmodium falciparum Dd2 harboring eEF2 Y86N mutant assessed as reduction in parasite growth incubated for 72 hrs by [3H]-hypoxanthine incorporation assay; format: functional, organism-based
[5] = Binding affinity to recombinant Plasmodium falciparum START1 assessed as dissociation constant by isothermal titration calorimetry
[6] = Lipophilicity, LogD of compound in 1-Octanol and PBS at pH 7.4 at 7.5 uM incubated for 2 hrs shake flask method based LC-MS/MS analysis; format: physicochemical; settings: 1-octanol/PBS
Plasmodium falciparum [7] = assay: Antimalarial activity against MMV006833 resistant Plasmodium falciparum 3D7 harboring START1 N330K mutant assessed as reduction in parasite growth incubated for 72 hrs by LDH assay; format: functional, organism-based; settings: 3D7, 72 h
[8] = Kinetic aqueous solubility of the compound in PBS at pH 7.4 incubated for 2 hr under shaking condition by shake flask based UV reader plate analysis; format: physicochemical; settings: read-out: Kinetic_solubility
[9] = Intrinsic clearance in rat hepatocyte measured per 10^6 cells at 1 uM incubated upto 90 mins by LC-MS/MS analysis; format: ADME, cell-based; settings: rat hepatocytes, read-out: CLH
[10] = Intrinsic clearance in human liver microsomes at 1 uM incubated upto 60 mins in presence of NADPH by LC-MS/MS analysis; format: ADME, Microsome; settings: read-out: CLH
Plasmodium falciparum [11] = assay: Antimalarial activity against MMV006833 resistant Plasmodium falciparum 3D7 assessed as reduction in parasite growth incubated for 72 hrs by LDH assay; format: functional, organism-based; settings: 3D7, 72 h
Plasmodium falciparum [12] = assay: Antimalarial activity against MMV006833 resistant Plasmodium falciparum 3D7 harboring START1 N309K mutant assessed as reduction in parasite growth incubated for 72 hrs by LDH assay; format: functional, organism-based; settings: 3D7, 72 h
Plasmodium falciparum [13] = assay: Binding affinity to recombinant Plasmodium falciparum START1 assessed as change in enthalpy at 10 uM by isothermal titration calorimetry
Plasmodium falciparum [14] = assay: Binding affinity to recombinant Plasmodium falciparum START1 assessed as change in entropy at 10 uM by isothermal titration calorimetry
Plasmodium falciparum [15] = assay: Antimalarial activity against MMV-048 resistant Plasmodium falciparum Dd2 harboring PI4K S743T mutant assessed as reduction in parasite growth incubated for 72 hrs by [3H]-hypoxanthine incorporation assay; format: functional, organism-based
Plasmodium falciparum [16] = assay: Antimalarial activity against KAF-156 resistant Plasmodium falciparum Dd2 harboring CARL I1139K mutant assessed as reduction in parasite growth incubated for 72 hrs by [3H]-hypoxanthine incorporation assay; format: functional, organism-based

Row | SMILES | EC50 (Plasmodium falciparum [1]) [nM] | EC50 (HepG2) [µM] | other results
1 | CCC[C@H](Nc1ccc(Cl)c(S(=O)(=O)N2CCOCC2)c1)C(=O)Nc1ccc(F)c(Cl)c1 | 140 | 16.3 | 
2 | COc1cc2[nH]c(C)c(-c3ccc(Oc4ccc(OC(F)(F)F)cc4)cc3)c(=O)c2cc1Cl |  |  | EC50 (Plasmodium falciparum [2]): 21 nM; EC50 (Plasmodium falciparum [3]): 180 nM
3 | O=C(Nc1ccc(F)c(Cl)c1)[C@@H]1CCCCN1c1ccc(Cl)c(S(=O)(=O)N2CCOCC2)c1 | 420 | 21 | 
4 | O=C(NCCN1CCCC1)c1cc(-c2ccc(CN3CCOCC3)cc2)nc2ccc(F)cc12 [CABAMIQUINE] |  |  | EC50 (Plasmodium falciparum [4]): 850 nM
5 | O=C(CNc1ccc(F)c(S(=O)(=O)N2CCOCC2)c1)Nc1ccc(F)c(Cl)c1 | 400 |  | 
6 | C[C@H](Nc1ccc(Cl)c(S(=O)(=O)N2CCOCC2)c1)C(=O)Nc1cncc(Cl)c1 | 54 | > 40 | Kd [5]: 119 nM; logD at 2 h, 7.5 µM [6]: 3.1; EC50 (Plasmodium falciparum [7]): 2600 nM; solubility kinetic at 2 h [8]: 77 µM (≈ 35.4 µg/mL); hepatocyte CLint at 1 µM [9]: 50 µL/min/1e6 cells; microsomal CLint at 1 µM [10]: > 462 µL/min/mg; EC50 (Plasmodium falciparum [11]): 16 nM; EC50 (Plasmodium falciparum [12]): 7800 nM; deltaH (Plasmodium falciparum [13]): -14.4 kcal/mol; -TdeltaS (Plasmodium falciparum [14]): 4.8 kcal/mol
7 | O=C(CNc1ccc(Cl)c(S(=O)(=O)N2CCOCC2)c1)Nc1ccnc(Cl)c1 | 1100 | > 40 | 
8 | CC(C)[C@H](Nc1ccc(Cl)c(S(=O)(=O)N2CCOCC2)c1)C(=O)Nc1ccc(F)c(Cl)c1 | 33 | 30.3 | EC50 (Plasmodium falciparum [7]): 2100 nM; EC50 (Plasmodium falciparum [11]): 5 nM; EC50 (Plasmodium falciparum [12]): 2400 nM
9 | Cc1cc(Cl)c(S(=O)(=O)N2CCCC2)cc1OCC(=O)NC1CCCCC1 |  |  | Kd [5]: 42 nM
10 | CS(=O)(=O)c1ccc(-c2cnc(N)c(-c3ccc(C(F)(F)F)nc3)c2)cc1 [MMV-048] |  |  | EC50 (Plasmodium falciparum [2]): 16 nM; EC50 (Plasmodium falciparum [15]): 120 nM
11 | Cc1cc(Cl)c(S(=O)(=O)N2CCOCC2)cc1OCC(=O)Nc1ccc(F)c(Cl)c1 | 300 | > 40 | 
12 | CCC(Nc1ccc(Cl)c(S(=O)(=O)N2CCOCC2)c1)C(=O)Nc1ccc(F)c(Cl)c1 (racemic) | 11 | 24.5 | 
13 | N#Cc1ccc(NCC(=O)Nc2ccc(F)c(Cl)c2)cc1S(=O)(=O)N1CCOCC1 | 750 | > 40 | 
14 | N#Cc1cccc(NC(=O)CNc2ccc(Cl)c(S(=O)(=O)N3CCOCC3)c2)c1 | 1500 | > 40 | 
15 | Cc1ccc(NCC(=O)Nc2cccc(C(F)(F)F)c2)cc1S(=O)(=O)N1CCOCC1 | 3800 | > 40 | 
16 | O=C(CNc1ccc(Cl)c(S(=O)(=O)N2CCOCC2)c1)Nc1cccc(Cl)c1 | 280 | > 40 | 
17 | Cc1ccc(NCC(=O)Nc2ccccc2)cc1S(=O)(=O)N1CCOCC1 | 2100 | > 40 | 
18 | O=C(CNc1ccc(Cl)c(S(=O)(=O)N2CCOCC2)c1)Nc1cccc(OC(F)(F)F)c1 | 5000 | 19.8 | 
19 | CC(C)CC(Nc1ccc(Cl)c(S(=O)(=O)N2CCOCC2)c1)C(=O)Nc1ccc(F)c(Cl)c1 (racemic) | 850 | 9.5 | 
20 | C[C@@H](Nc1ccc(Cl)c(S(=O)(=O)N2CCOCC2)c1)C(=O)Nc1cncc(Cl)c1 | 1100 | > 40 | 
21 | O=C(COc1ccc(Cl)c(S(=O)(=O)N2CCOCC2)c1)NC1CCCCC1 | 4300 | > 40 | 
22 | CC1(C)c2nc(-c3ccc(F)cc3)c(Nc3ccc(F)cc3)n2CCN1C(=O)CN [GANAPLACIDE] |  |  | EC50 (Plasmodium falciparum [2]): 8 nM; EC50 (Plasmodium falciparum [16]): 1530 nM

Row | SMILES | EC50 (Plasmodium falciparum [1]) [nM] | EC50 (HepG2) [µM] | other results
23 | Cc1cc(Cl)c(S(=O)(=O)N2CCOCC2)cc1NCC(=O)NC1CCCCC1 | 1000 | > 40 | 
24 | C[C@H](Nc1ccc(Cl)c(S(=O)(=O)N2CCOCC2)c1)C(=O)Nc1ccc(F)c(Cl)c1 | 22 | > 40 | Kd [5]: 66 nM; logD at 2 h, 7.5 µM [6]: 3.9; EC50 (Plasmodium falciparum [7]): 1700 nM; solubility kinetic at 2 h [8]: 14 µM (≈ 6.67 µg/mL); hepatocyte CLint at 1 µM [9]: > 92 µL/min/1e6 cells; microsomal CLint at 1 µM [10]: > 462 µL/min/mg; EC50 (Plasmodium falciparum [11]): 3 nM; EC50 (Plasmodium falciparum [12]): 2100 nM; deltaH (Plasmodium falciparum [13]): -17.7 kcal/mol; -TdeltaS (Plasmodium falciparum [14]): 7.8 kcal/mol
25 | O=C(Nc1ccc(F)c(Cl)c1)C(Cc1ccccc1)Nc1ccc(Cl)c(S(=O)(=O)N2CCOCC2)c1 (racemic) | 1400 | 15.5 | 
26 | Cc1ccc(NCC(=O)Nc2ccc(F)c(Cl)c2)cc1S(=O)(=O)N1CCOCC1 | 270 |  | 
27 | Cc1cc(Cl)c(S(=O)(=O)N2CCOCC2)cc1OCC(=O)NC1CCCCC1 | 1600 | > 40 | 
28 | O=C(CNc1ccc(Cl)c(S(=O)(=O)N2CCOCC2)c1)Nc1cc(Cl)ccn1 | 2800 | > 40 | 
29 | O=C(COc1ccc(Cl)c(S(=O)(=O)N2CCOCC2)c1)Nc1ccc(F)c(Cl)c1 | 810 | > 40 | 
30 | CC(=O)N1CCN(S(=O)(=O)c2cc(NCC(=O)Nc3ccc(F)c(Cl)c3)ccc2Cl)CC1 | 9100 | > 40 | 
31 | O=C(Nc1ccc(F)c(Cl)c1)C(Nc1ccc(Cl)c(S(=O)(=O)N2CCOCC2)c1)c1ccccc1 (racemic) | 6300 | 19.3 | 
32 | Cc1cc(Cl)c(S(=O)(=O)N2CCOCC2)cc1NCC(=O)Nc1ccc(F)c(Cl)c1 | 130 | > 40 | 
33 | COc1ccc(NCC(=O)Nc2ccc(F)c(Cl)c2)cc1S(=O)(=O)N1CCOCC1 | 430 | > 40 | 
34 | Cc1ccc(NCC(=O)Nc2cccc(Cl)c2)cc1S(=O)(=O)N1CCOCC1 | 360 | > 40 | 
35 | CN(C)C1CCN(S(=O)(=O)c2cc(NCC(=O)Nc3ccc(F)c(Cl)c3)ccc2Cl)CC1 | > 10000 | > 40 | 
36 | O=C(CNc1ccc(Cl)c(S(=O)(=O)N2CCC(Cc3ccccc3)CC2)c1)Nc1ccc(F)c(Cl)c1 | 270 | 14 | 
37 | C[C@@H](Nc1ccc(Cl)c(S(=O)(=O)N2CCOCC2)c1)C(=O)Nc1ccc(F)c(Cl)c1 | 320 | > 40 | Kd [5]: 138 nM; EC50 (Plasmodium falciparum [7]): 4400 nM; EC50 (Plasmodium falciparum [11]): 99 nM; EC50 (Plasmodium falciparum [12]): 4300 nM; deltaH (Plasmodium falciparum [13]): -16.1 kcal/mol; -TdeltaS (Plasmodium falciparum [14]): 6.7 kcal/mol
38 | O=C(CNc1ccc(Cl)c(S(=O)(=O)N2CCOCC2)c1)Nc1cncc(Cl)c1 | 410 | > 40 | 
39 | O=C(CNc1ccc(Cl)c(S(=O)(=O)N2CCOCC2)c1)Nc1cccc(Cl)n1 | 8900 | > 40 | 
40 | COC1CCN(S(=O)(=O)c2cc(NCC(=O)Nc3ccc(F)c(Cl)c3)ccc2Cl)CC1 | 1500 | > 40 | 
41 | CN1CCN(S(=O)(=O)c2cc(NCC(=O)Nc3ccc(F)c(Cl)c3)ccc2Cl)CC1 | > 10000 | > 40 | 
42 | CC1CCN(S(=O)(=O)c2cc(NCC(=O)Nc3ccc(F)c(Cl)c3)ccc2Cl)CC1 | 260 | 26.8 | 
43 | CN1CCC(NS(=O)(=O)c2cc(NCC(=O)Nc3ccc(F)c(Cl)c3)ccc2Cl)CC1 | > 10000 | > 40 | 
44 | CCC(C)[C@H](Nc1ccc(Cl)c(S(=O)(=O)N2CCOCC2)c1)C(=O)Nc1ccc(F)c(Cl)c1 (stereo partly specified) | 27 | 10.9 | EC50 (Plasmodium falciparum [7]): 1600 nM; EC50 (Plasmodium falciparum [11]): 15 nM; EC50 (Plasmodium falciparum [12]): 2100 nM
